Assay results as given in patent US3984481A, “Bis-2-substituted-thiovinyl sulfones” (Chevron Research Company, priority 1976, dated 1976).
Like-named read-outs stand apart in the source and are kept apart here.

How the values were obtained:
Elodea = assay: Algae control (aquatic weed control) test; type: in vivo; settings: read-out: Percent Aquatic Weed Control
Procedure: (§1) Representative compounds of the invention were tested as algicides by the following method. The algae test species were Lemna, Elodea and Spirolina. An acetone solution of the test compound and a small amount of an alkylarylpolyoxyethylene glycol-containing surfactant was prepared. This solution was mixed with a nutrient broth in a quantity sufficient to give a concentration of 2 ppm. A 240 ml container was filled with this mixture. A sample of the test algae was added to each container and the container was then placed in an illuminated environment and maintained at a temperature of about 20°C for incubation. The containers were observed periodically for algae growth (as compared to an untreated check). The algicidal effectiveness of the test compound was determined based on a final observation of algae growth after 7 to 10 days. The results of the test on a 0 to 100 basis -- 0 indicating no effectiveness and 100 indicating complete effectiveness -- are reported in Table III.

Lemna = assay: Algae control (aquatic weed control) test; type: in vivo; settings: read-out: Percent Aquatic Weed Control
Procedure: as §1

Pythium ultimum = assay: Mycelial inhibition test
Rhizoctonia solani = assay: Mycelial inhibition test
Aspergillus niger = assay: Mycelial inhibition test
Fusarium moniloforma = assay: Mycelial inhibition test
Spirolina = assay: Algae control (aquatic weed control) test; type: in vivo; settings: read-out: Percent Aquatic Weed Control
Procedure: as §1

Botrytis cinerea = assay: Mycelial inhibition test
[1] = Elodea, 2 ppm, 20°C, 7 to 10 days, 0 no effectiveness, 100 complete effectiveness
[2] = 2 ppm, 20°C, 7 to 10 days, 0 no effectiveness, 100 complete effectiveness
[3] = Pythium ultimum, 99% control, 25°C, 24 hours, 500 ppm acetone solution sprayed
[4] = Rhizoctonia solani, 99% control, 25°C, 24 hours, 500 ppm acetone solution sprayed
[5] = Aspergillus niger, 99% control, 25°C, 24 hours, 500 ppm acetone solution sprayed
[6] = Fusarium moniloforma, 99% control, 25°C, 24 hours, 500 ppm acetone solution sprayed
[7] = Spirolina, 2 ppm, 20°C, 7 to 10 days, 0 no effectiveness, 100 complete effectiveness
[8] = Botrytis cinerea, 99% control, 25°C, 24 hours, 500 ppm acetone solution sprayed

Row | Structure (SMILES) | inhibition at 2 ppm (Elodea; [1]) [%] | inhibition at 2 ppm (Lemna; [2]) [%] | Mycelia Inhibition, micrograms/cm^2 for 99% control (Pythium ultimum; [3]) [micrograms/cm^2] | Mycelia Inhibition, micrograms/cm^2 for 99% control (Rhizoctonia solani; [4]) [micrograms/cm^2] | Mycelia Inhibition, micrograms/cm^2 for 99% control (Aspergillus niger; [5]) [micrograms/cm^2] | Mycelia Inhibition, micrograms/cm^2 for 99% control (Fusarium moniloforma; [6]) [micrograms/cm^2] | inhibition at 2 ppm (Spirolina; [7]) [%] | Mycelia Inhibition, micrograms/cm^2 for 99% control (Botrytis cinerea; [8]) [micrograms/cm^2] | inhibition at 2 ppm (Elodea) [%] | inhibition at 2 ppm (Lemna) [%] | inhibition at 2 ppm (Spirolina) [%] | Mycelia Inhibition, micrograms/cm^2 for 99% control (Pythium ultimum) [micrograms/cm^2] | Mycelia Inhibition, micrograms/cm^2 for 99% control (Rhizoctonia solani) [micrograms/cm^2] | Mycelia Inhibition, micrograms/cm^2 for 99% control (Aspergillus niger) [micrograms/cm^2] | Mycelia Inhibition, micrograms/cm^2 for 99% control (Fusarium moniloforma) [micrograms/cm^2] | Mycelia Inhibition, micrograms/cm^2 for 99% control (Botrytis cinerea) [micrograms/cm^2]
1 | O=S(=O)(C=CSc1ccc(Cl)cc1)C=CSc1ccc(Cl)cc1 [Compound 1] | 97 | 68 | 0.22 | 0.9 | 0.86 | > 1.7 |  |  |  |  |  |  |  |  |  | 
2 | O=S(=O)(C=CSc1cccc(Cl)c1)C=CSc1cccc(Cl)c1 [Compound 2] | 94 | 100 | > 1.7 | 1.5 | 1.1 | > 1.7 | 0 | 1.2 |  |  |  |  |  |  |  | 
3 | O=S(=O)(C=CSc1ccc(Br)cc1)C=CSc1ccc(Br)cc1 [Compound 3, bis-2-(4-bromophenylthio)vinyl sulfone] | 94 | 94 | > 1.7 | 1.4 | 0.73 | > 1.7 | 40 | 1.4 |  |  |  |  |  |  |  | 
4 | O=S(=O)(C=CSc1cc(Cl)ccc1Cl)C=CSc1cc(Cl)ccc1Cl [Compound 4] | 70 | 39 | > 1.7 | 1.2 | > 1.7 | > 1.7 | 80 | 0.70 |  |  |  |  |  |  |  | 
5 | O=S(=O)(C=CSc1ccc(F)cc1)C=CSc1ccc(F)cc1 [Compound 5] | 70 | 30 | > 1.7 | > 1.7 | > 1.7 | > 1.7 | 80 | > 1.7 |  |  |  |  |  |  |  | 
6 | O=[N+]([O-])c1ccc(SC=CS(=O)(=O)C=CSc2ccc([N+](=O)[O-])cc2)cc1 [Compound 6] |  |  |  |  |  |  |  |  | 78 | 99 | 90 | 0.73 | 0.50 | 0.34 | > 1.7 | 0.7
7 | O=S(=O)(C=CSc1ccc(Cl)c(Cl)c1)C=CSc1ccc(Cl)c(Cl)c1 [Compound 7] | 90 | 70 | 0.78 | 0.97 | 1.1 | 1.0 | 95 | 0.70 |  |  |  |  |  |  |  | 
8 | O=S(=O)(C=CSc1ccccc1)C=CSc1ccccc1 [Compound 8] | 39 | 0 | > 1.7 | 0.88 | 0.50 | > 1.7 | 30 | 1.5 |  |  |  |  |  |  |  | 
9 | O=S(=O)(CCSc1ccc(Cl)cc1)CCSc1ccc(Cl)cc1 [Compound 10, bis-2-(4-chlorophenylthio)ethyl sulfone, reference compound] | 0 | 0 | > 1.7 | > 1.7 | > 1.7 | > 1.7 | 0 | > 1.7 |  |  |  |  |  |  |  | 
